This test has as its system P388 leukemia ip, CD2F1 mice, survival T/C. The test can be described thus: NCI In Vivo Anticancer Drug Screen. Data for tumor model P388 Leukemia (intraperitoneal) in CD2F1 (CDF1) mice. As to conditions: endpoint: median survival time, higher = longer survival. In outline:
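Mice carrying the transplanted tumor received test compound or vehicle. Survival was recorded in each group, and the value is the treated-group measurement divided by that of the vehicle-treated control group.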

[1] abbreviates: dose: 25.0 mg/kg/injection, schedule: Q01DX009 (ip), vehicle: Klucel (hydroxypropylcellulose) (HPC).
Setting [2] is: dose: 50.0 mg/kg/injection, schedule: Q01DX009 (ip), vehicle: Klucel (hydroxypropylcellulose) (HPC).
[3] abbreviates: dose: 100.0 mg/kg/injection, schedule: Q01DX009 (ip), vehicle: Klucel (hydroxypropylcellulose) (HPC).
Where [4] appears, read: dose: 200.0 mg/kg/injection, schedule: Q01DX009 (ip), vehicle: Klucel (hydroxypropylcellulose) (HPC).
Setting [5] is: dose: 50.0 mg/kg/injection, schedule: Q01DX005 (ip), vehicle: saline.
The mark [6] stands for this setting: dose: 100.0 mg/kg/injection, schedule: Q01DX005 (ip), vehicle: saline.
The mark [7] stands for this setting: dose: 200.0 mg/kg/injection, schedule: Q01DX005 (ip), vehicle: saline.
Setting [8] is: dose: 50.0 mg/kg/injection, schedule: Q01DX009 (ip), vehicle: saline with Tween-80.
The mark [9] stands for this setting: dose: 100.0 mg/kg/injection, schedule: Q01DX009 (ip), vehicle: saline with Tween-80.
Setting [10] is: dose: 200.0 mg/kg/injection, schedule: Q01DX009 (ip), vehicle: saline with Tween-80.
The mark [11] stands for this setting: dose: 60.0 mg/kg/injection, schedule: Q01DX005 (ip), vehicle: saline with Tween-80.
The mark [12] stands for this setting: dose: 120.0 mg/kg/injection, schedule: Q01DX005 (ip), vehicle: saline with Tween-80.
Setting [13] is: dose: 240.0 mg/kg/injection, schedule: Q01DX005 (ip), vehicle: saline with Tween-80.
Where [14] appears, read: dose: 100.0 mg/kg/injection, schedule: Q01DX001 (ip), vehicle: Klucel (hydroxypropylcellulose) (HPC).
Setting [15] is: dose: 200.0 mg/kg/injection, schedule: Q01DX001 (ip), vehicle: Klucel (hydroxypropylcellulose) (HPC).
The mark [16] stands for this setting: dose: 50.0 mg/kg/injection, schedule: Q01DX005 (ip), vehicle: Klucel (hydroxypropylcellulose) (HPC).
Where [17] appears, read: dose: 100.0 mg/kg/injection, schedule: Q01DX005 (ip), vehicle: Klucel (hydroxypropylcellulose) (HPC).
The mark [18] stands for this setting: dose: 200.0 mg/kg/injection, schedule: Q01DX005 (ip), vehicle: Klucel (hydroxypropylcellulose) (HPC).
Where [19] appears, read: dose: 50.0 mg/kg/injection, schedule: Q01DX009 (ip), vehicle: saline.
Where [20] appears, read: dose: 100.0 mg/kg/injection, schedule: Q01DX009 (ip), vehicle: saline.
[21] abbreviates: dose: 200.0 mg/kg/injection, schedule: Q01DX009 (ip), vehicle: saline.
The mark [22] stands for this setting: dose: 25.0 mg/kg/injection, schedule: Q01DX009 (ip), vehicle: saline.
Setting [23] is: dose: 400.0 mg/kg/injection, schedule: Q01DX001 (ip), vehicle: Klucel (hydroxypropylcellulose) (HPC).

“And” between values parts separate entries of the source, which are not always exact repeats. Identical values can stand only once. Toxic doses and inconclusive results are not listed.

On to `COC(=O)c1ccc(-c2ccccc2)cc1`, for which the T/C by setting is: under setting [1], 89 % of control; under setting [2], 89 % of control; under setting [3], 90 % of control; under setting [4], 86 % of control.

Take `O=C1C(c2nc3ccccc3[nH]2)=C(O)c2ccccc21`: the T/C (dose: 60.0 mg/kg/injection, schedule: Q01DX005 (ip), vehicle: Klucel (hydroxypropylcellulose) (HPC)) was 87 % of control; the T/C (dose: 120.0 mg/kg/injection, schedule: Q01DX005 (ip), vehicle: Klucel (hydroxypropylcellulose) (HPC)) is 87 % of control; the T/C (dose: 240.0 mg/kg/injection, schedule: Q01DX005 (ip), vehicle: Klucel (hydroxypropylcellulose) (HPC)) is 87 % of control.

In the case of `Cc1ccc(C(=O)Cc2nc3nnc(N)n3nc2CC(=O)c2ccc(C)cc2)cc1`, the T/C by setting is: under setting [5], 97 % of control; under setting [6], 100 % of control; under setting [7], 97 % of control.

For `CCc1ccnc(N=C2N=C(Nc3cc(CC)ccn3)c3ccccc32)c1`, the T/C is, setting by setting: under setting [8], 92 % of control; under setting [9], 97 % of control; under setting [10], 97 % of control.

As to `Cc1cc(=O)c2ccc(Cl)c(C)c2[nH]1`, the T/C reads like this: under setting [11], 110 % of control; under setting [12], 93 % of control; under setting [13], 103 % of control.

Turning to `COC(=O)C1CCC(=O)N1Cc1csc(-c2ccccc2)n1` (centres undefined), the T/C was 106 % of control under setting [11], 100 % of control under setting [12] and 106 % of control under setting [13].

As for `O=C(C1CO1)C(Cl)(Cl)Cl` (centres undefined), the T/C is 107 % of control (dose: 3.12 mg/kg/injection, schedule: Q01DX001 (ip), vehicle: saline); 107 % of control (dose: 6.25 mg/kg/injection, schedule: Q01DX001 (ip), vehicle: saline); 116 % of control (dose: 12.5 mg/kg/injection, schedule: Q01DX001 (ip), vehicle: saline); 120 % of control and 122 % of control (dose: 25.0 mg/kg/injection, schedule: Q01DX001 (ip), vehicle: saline); 113 % of control (dose: 50.0 mg/kg/injection, schedule: Q01DX001 (ip), vehicle: saline); 111 % of control (dose: 100.0 mg/kg/injection, schedule: Q01DX001 (ip), vehicle: saline).

Take `O=C(O)c1nccc2ccccc12`: the T/C (dose: 12.5 mg/kg/injection, schedule: Q01DX009 (ip), vehicle: saline with Tween-80) was 103 % of control; the T/C (dose: 25.0 mg/kg/injection, schedule: Q01DX009 (ip), vehicle: saline with Tween-80) was 103 % of control; the T/C under setting [8] is 105 % of control; the T/C under setting [9] was 106 % of control.

On to `Cc1cc(=O)n2c(nc3cc(C(=O)c4ccccc4)ccc32)s1`, for which the T/C is, setting by setting: (dose: 50.0 mg/kg/injection, schedule: Q01DX001 (ip), vehicle: Klucel (hydroxypropylcellulose) (HPC)) 101 % of control; under setting [14], 98 % of control; under setting [15], 100 % of control.

On to `CCOP(=O)(Nc1c(Cl)cc2c(c1Cl)Cc1cc([N+](=O)[O-])ccc1-2)OCC`, for which the T/C is, setting by setting: under setting [16], 92 % of control; under setting [17], 88 % of control; under setting [18], 88 % of control.

`NC(=O)CC1(c2ccccc2)CCCCC1`: the T/C reads like this: under setting [8], 111 % of control; under setting [9], 102 % of control; under setting [10], 104 % of control.

Turning to `Cc1onc(-c2ccccc2)c1C(=O)N/N=C/c1cc(Cl)cc(Cl)c1O`, the T/C is 103 % of control under setting [19], 91 % of control under setting [20] and 99 % of control under setting [21].

Take `CC[As](CC)SC1CC2C3CCC4=CC(=O)C=CC4(C)C3C(=O)CC2(C)C1C(=O)CC(C)=O` (centres undefined): the T/C is, setting by setting: under setting [16], 101 % of control; under setting [17], 103 % of control; under setting [18], 94 % of control.

As for `O=C1NC(CO)C(=O)N2CCCC12` (centres undefined), the T/C is, setting by setting: (dose: 12.5 mg/kg/injection, schedule: Q01DX009 (ip), vehicle: saline) 100 % of control; under setting [22], 99 % of control; under setting [19], 99 % of control.

Turning to `NC(Cn1ccc(=O)c(O)c1)C(=O)O` (centres undefined), the T/C is 113 % of control (dose: 12.5 mg/kg/injection, schedule: Q01DX005 (ip), vehicle: saline); 115 % of control (dose: 25.0 mg/kg/injection, schedule: Q01DX005 (ip), vehicle: saline); 107 % of control under setting [5]; 116 % of control under setting [6]; 100 % of control and 96 % of control under setting [20]; 114 % of control under setting [7]. Further, the T/C was 102 % of control and 114 % of control under setting [21]; 107 % of control and 96 % of control (dose: 400.0 mg/kg/injection, schedule: Q01DX009 (ip), vehicle: saline); 98 % of control and 102 % of control (dose: 600.0 mg/kg/injection, schedule: Q01DX009 (ip), vehicle: saline).

`Cc1ccc(/C=N\N=C\c2ccc(C)cc2)cc1`: the T/C under setting [8] is 100 % of control; the T/C (dose: 50.0 mg/kg/injection, schedule: Q04DX003 (ip), vehicle: saline with Tween-80) was 91 % of control; the T/C under setting [9] is 90 % of control; the T/C (dose: 100.0 mg/kg/injection, schedule: Q04DX003 (ip), vehicle: saline with Tween-80) was 87 % of control; the T/C under setting [10] was 90 % of control; the T/C (dose: 200.0 mg/kg/injection, schedule: Q04DX003 (ip), vehicle: saline with Tween-80) was 91 % of control.

As for `COc1ccc(CN2COc3c(ccc4ccccc34)C2)cc1`, the T/C is 97 % of control (dose: 100.0 mg/kg/injection, schedule: Q04DX003 (ip), vehicle: Klucel (hydroxypropylcellulose) (HPC)); 96 % of control (dose: 200.0 mg/kg/injection, schedule: Q04DX003 (ip), vehicle: Klucel (hydroxypropylcellulose) (HPC)); 100 % of control (dose: 400.0 mg/kg/injection, schedule: Q04DX003 (ip), vehicle: Klucel (hydroxypropylcellulose) (HPC)).

As to `O=C1C(Cl)=C(Nc2cc(Cl)ccc2Cl)C(=O)c2ccccc21`, the T/C reads like this: under setting [11], 98 % of control; under setting [12], 102 % of control; under setting [13], 101 % of control.

`COc1ccccc1N1C(=S)N(c2cccc(Cl)c2Cl)C(=O)C(N=Nc2ccc(Br)cc2)C1O` (centres undefined): the T/C by setting is: under setting [14], 100 % of control; under setting [15], 99 % of control; under setting [23], 96 % of control.

For the compound `Cn1ccnc1C[Si](C)(C)C`, the T/C runs as follows: (dose: 45.5 mg/kg/injection, schedule: Q01DX005 (ip), vehicle: saline with Tween-80) 99 % of control; (dose: 91.0 mg/kg/injection, schedule: Q01DX005 (ip), vehicle: saline with Tween-80) 107 % of control; (dose: 182.0 mg/kg/injection, schedule: Q01DX005 (ip), vehicle: saline with Tween-80) 108 % of control.

As for `CC1(C)N=C(N)N=C(N)N1c1ccc(OCCCNC(=O)Nc2cccc(S(=O)(=O)F)c2)c(Cl)c1`, the T/C reads like this: under setting [22], 179 % of control; under setting [19], 190 % of control; under setting [20], 209 % of control.

Turning to `c1ccc(C2=NCCN=C2c2ccccc2)cc1`, the T/C runs as follows: under setting [14], 94 % of control; under setting [15], 99 % of control; under setting [23], 93 % of control.

Take `NC(=S)NNC(=O)c1ccc([N+](=O)[O-])cc1`: the T/C runs as follows: under setting [1], 100 % of control; under setting [2], 105 % of control; under setting [3], 99 % of control; under setting [4], 96 % of control.

For the origin of these results see PubChem BioAssay AID330 (DTP/NCI, 2004).
